{
  "source": "patent US20230136600A1",
  "about": "“Method and device for screening antigen epitope polypeptide” (priority 2020, published 2023)",
  "key": {"[1]": {"test_system": "novel coronavirus (live coronavirus), vero cells", "experiment": "In-vitro live virus neutralization experiment with serum of immunized mice (CPE method)", "format": "in vivo, SARS-CoV-2", "details": "Embodiment I: single peptide 100 μg + MF59 at Day 0, 14, 28, Balb/c mice, serum Day 35"}, "[2]": {"test_system": "Balb/c mice", "experiment": "Polypeptide chip-based vaccine immunogenicity scoring system", "format": "in vivo", "set-up": "key to A2: whether the 95 percentile of the last sampling is increased compared with the end point: Y = rise; N = no rise"}, "[3]": {"details": "Embodiment III, polypeptide-KLH"}, "[4]": {"details": "Embodiment III, polypeptide-KLH, Mix1-10"}, "[5]": {"details": "Embodiment III, polypeptide-KLH, total score = 5"}, "[6]": {"details": "Embodiment III, polypeptide-KLH, value of the whole mix"}, "[7]": {"details": "adjuvant AddaVax, 7 peptides co-immunized in mice"}, "[8]": {"details": "adjuvant Adju-Phos, 7 peptides co-immunized in mice"}, "[9]": {"details": "adjuvant Alhydrogel, 7 peptides co-immunized in mice"}, "[10]": {"details": "adjuvant Imjet Alumn, 7 peptides co-immunized in mice"}, "[11]": {"details": "adjuvant MA103A, 7 peptides co-immunized in mice"}, "[12]": {"details": "adjuvant MA103B, 7 peptides co-immunized in mice"}},
  "data": [
    {"sequence": "KLDDKDPNFK (SARS-CoV-2) [SEQ ID NO:20]", "values": [
      {"measurement": "Neutralizing antibody positive rate (%)", "setting": "[1]", "result": 20, "unit": "%"},
      {"measurement": "B1: D 0-D 14 95 percentile rise in the number of mice", "setting": "[2]; [3]", "result": 3},
      {"measurement": "B2: D 0-D 21 95 percentile rise in the number of mice", "setting": "[2]; [3]", "result": 3},
      {"measurement": "B3: D 14-D 21 95 percentile rise in the number of mice", "setting": "[2]; [3]", "result": 1},
      {"measurement": "B4: D 21-D 28 95 percentile rise in the number of mice", "setting": "[2]; [3]", "result": 1},
      {"measurement": "A1: difference between a highest median and a D 0 median (95 percentile)", "setting": "[2]; [4]", "result": 0.08},
      {"measurement": "A2: whether the 95 percentile of the last sampling is increased compared with the end point", "setting": "[2]; [4]", "result": "Y"},
      {"measurement": "Total single peptide", "setting": "[2]; Embodiment III, polypeptide-KLH, A*3 + B*2 + C*1", "result": 14.8},
      {"measurement": "A: 95 percentile grouping number score", "setting": "[2]; [5]", "result": 3.5},
      {"measurement": "B: Mouse performance score", "setting": "[2]; [5]", "result": 1.9},
      {"measurement": "C1: #A timing-sequence response peptide fragment set", "setting": "[2]; [6]", "result": 511},
      {"measurement": "C2: #B vaccine specificity peptide fragment set", "setting": "[2]; [6]", "result": 364},
      {"measurement": "C3: Intersection of A and B", "setting": "[2]; [6]", "result": 1},
      {"measurement": "C4: Percentage of the intersection in set B", "setting": "[2]; [6]", "result": 0.275},
      {"measurement": "C: Timing-sequence response and specificity score", "setting": "[2]; [6]", "result": 0.5},
      {"measurement": "1) 95 percentile grouping number A", "setting": "[2]; [7]", "result": 0},
      {"measurement": "1) 95 percentile grouping number A1", "setting": "[2]; [7]", "result": 0},
      {"measurement": "2) Mouse performance B", "setting": "[2]; [7]", "result": 1.5},
      {"measurement": "2) Mouse performance B1", "setting": "[2]; [7]", "result": 1},
      {"measurement": "2) Mouse performance B2", "setting": "[2]; [7]", "result": 0},
      {"measurement": "2) Mouse performance B3", "setting": "[2]; [7]", "result": 3},
      {"measurement": "3) Timing-sequence response and specificity C", "setting": "[2]; [7]", "result": 0},
      {"measurement": "3) Timing-sequence response and specificity C1", "setting": "[2]; [7]", "result": 237},
      {"measurement": "3) Timing-sequence response and specificity C2", "setting": "[2]; [7]", "result": 1244},
      {"measurement": "3) Timing-sequence response and specificity C3", "setting": "[2]; [7]", "result": 0},
      {"measurement": "3) Timing-sequence response and specificity C4", "setting": "[2]; [7]", "result": 0.000},
      {"measurement": "Total single peptide", "setting": "[2]; [7]", "result": 3},
      {"measurement": "1) 95 percentile grouping number A", "setting": "[2]; [8]", "result": 1.5},
      {"measurement": "1) 95 percentile grouping number A1", "setting": "[2]; [8]", "result": 0.025},
      {"measurement": "2) Mouse performance B", "setting": "[2]; [8]", "result": 1.4},
      {"measurement": "2) Mouse performance B1", "setting": "[2]; [8]", "result": 2},
      {"measurement": "2) Mouse performance B2", "setting": "[2]; [8]", "result": 2},
      {"measurement": "2) Mouse performance B3", "setting": "[2]; [8]", "result": 1},
      {"measurement": "3) Timing-sequence response and specificity C", "setting": "[2]; [8]", "result": 0},
      {"measurement": "3) Timing-sequence response and specificity C1", "setting": "[2]; [8]", "result": 203},
      {"measurement": "3) Timing-sequence response and specificity C2", "setting": "[2]; [8]", "result": 1244},
      {"measurement": "3) Timing-sequence response and specificity C3", "setting": "[2]; [8]", "result": 0},
      {"measurement": "3) Timing-sequence response and specificity C4", "setting": "[2]; [8]", "result": 0.000},
      {"measurement": "Total single peptide", "setting": "[2]; [8]", "result": 7.3},
      {"measurement": "1) 95 percentile grouping number A", "setting": "[2]; [9]", "result": 0},
      {"measurement": "1) 95 percentile grouping number A1", "setting": "[2]; [9]", "result": 0},
      {"measurement": "2) Mouse performance B", "setting": "[2]; [9]", "result": 1.6},
      {"measurement": "2) Mouse performance B1", "setting": "[2]; [9]", "result": 2},
      {"measurement": "2) Mouse performance B2", "setting": "[2]; [9]", "result": 1},
      {"measurement": "2) Mouse performance B3", "setting": "[2]; [9]", "result": 2},
      {"measurement": "3) Timing-sequence response and specificity C", "setting": "[2]; [9]", "result": 1},
      {"measurement": "3) Timing-sequence response and specificity C1", "setting": "[2]; [9]", "result": 123},
      {"measurement": "3) Timing-sequence response and specificity C2", "setting": "[2]; [9]", "result": 1244},
      {"measurement": "3) Timing-sequence response and specificity C3", "setting": "[2]; [9]", "result": 2},
      {"measurement": "3) Timing-sequence response and specificity C4", "setting": "[2]; [9]", "result": 0.161},
      {"measurement": "Total single peptide", "setting": "[2]; [9]", "result": 3.7},
      {"measurement": "1) 95 percentile grouping number A", "setting": "[2]; [10]", "result": 0},
      {"measurement": "1) 95 percentile grouping number A1", "setting": "[2]; [10]", "result": 0},
      {"measurement": "2) Mouse performance B", "setting": "[2]; [10]", "result": 1.7},
      {"measurement": "2) Mouse performance B1", "setting": "[2]; [10]", "result": 1},
      {"measurement": "2) Mouse performance B2", "setting": "[2]; [10]", "result": 1},
      {"measurement": "2) Mouse performance B3", "setting": "[2]; [10]", "result": 3},
      {"measurement": "3) Timing-sequence response and specificity C", "setting": "[2]; [10]", "result": 1},
      {"measurement": "3) Timing-sequence response and specificity C1", "setting": "[2]; [10]", "result": 100},
      {"measurement": "3) Timing-sequence response and specificity C2", "setting": "[2]; [10]", "result": 1244},
      {"measurement": "3) Timing-sequence response and specificity C3", "setting": "[2]; [10]", "result": 3},
      {"measurement": "3) Timing-sequence response and specificity C4", "setting": "[2]; [10]", "result": 0.241},
      {"measurement": "Total single peptide", "setting": "[2]; [10]", "result": 3.9},
      {"measurement": "1) 95 percentile grouping number A", "setting": "[2]; [11]", "result": 1.5},
      {"measurement": "1) 95 percentile grouping number A1", "setting": "[2]; [11]", "result": 0.015},
      {"measurement": "2) Mouse performance B", "setting": "[2]; [11]", "result": 2.4},
      {"measurement": "2) Mouse performance B1", "setting": "[2]; [11]", "result": 2},
      {"measurement": "2) Mouse performance B2", "setting": "[2]; [11]", "result": 3},
      {"measurement": "2) Mouse performance B3", "setting": "[2]; [11]", "result": 3},
      {"measurement": "3) Timing-sequence response and specificity C", "setting": "[2]; [11]", "result": 1},
      {"measurement": "3) Timing-sequence response and specificity C1", "setting": "[2]; [11]", "result": 260},
      {"measurement": "3) Timing-sequence response and specificity C2", "setting": "[2]; [11]", "result": 1244},
      {"measurement": "3) Timing-sequence response and specificity C3", "setting": "[2]; [11]", "result": 3},
      {"measurement": "3) Timing-sequence response and specificity C4", "setting": "[2]; [11]", "result": 0.241},
      {"measurement": "Total single peptide", "setting": "[2]; [11]", "result": 9.8},
      {"measurement": "1) 95 percentile grouping number A", "setting": "[2]; [12]", "result": 1},
      {"measurement": "1) 95 percentile grouping number A1", "setting": "[2]; [12]", "result": 0.02},
      {"measurement": "2) Mouse performance B", "setting": "[2]; [12]", "result": 2.1},
      {"measurement": "2) Mouse performance B1", "setting": "[2]; [12]", "result": 3},
      {"measurement": "2) Mouse performance B2", "setting": "[2]; [12]", "result": 2},
      {"measurement": "2) Mouse performance B3", "setting": "[2]; [12]", "result": 2},
      {"measurement": "3) Timing-sequence response and specificity C", "setting": "[2]; [12]", "result": 0},
      {"measurement": "3) Timing-sequence response and specificity C1", "setting": "[2]; [12]", "result": 153},
      {"measurement": "3) Timing-sequence response and specificity C2", "setting": "[2]; [12]", "result": 1244},
      {"measurement": "3) Timing-sequence response and specificity C3", "setting": "[2]; [12]", "result": 0},
      {"measurement": "3) Timing-sequence response and specificity C4", "setting": "[2]; [12]", "result": 0.000},
      {"measurement": "Total single peptide", "setting": "[2]; [12]", "result": 7.2}
    ]}
  ]
}
